Experimental data: patent US7998965B2, “Glutamate aggrecanase inhibitors” (Wyeth LLC, priority 2005, dated 2011)

What was measured:
[1] = molecular target: T1, recombinant human catalytic domain of MMP-14 (Homo sapiens, UniProt P50281); assay: In vitro fluorescence assay of MMP-14 activity; type: biochemical; conditions: Table 1; unit inferred
T1 construct: 177 amino acids corresponding to Tyr89-Gly265 of mature human enzyme; purchased Chemicon International, Inc. CC1041

[2] = molecular target: T2, recombinant human MMP-2 (Homo sapiens, UniProt P08253); assay: In vitro fluorescence assay of MMP-2 activity
T2 sequence (P08253 110-660): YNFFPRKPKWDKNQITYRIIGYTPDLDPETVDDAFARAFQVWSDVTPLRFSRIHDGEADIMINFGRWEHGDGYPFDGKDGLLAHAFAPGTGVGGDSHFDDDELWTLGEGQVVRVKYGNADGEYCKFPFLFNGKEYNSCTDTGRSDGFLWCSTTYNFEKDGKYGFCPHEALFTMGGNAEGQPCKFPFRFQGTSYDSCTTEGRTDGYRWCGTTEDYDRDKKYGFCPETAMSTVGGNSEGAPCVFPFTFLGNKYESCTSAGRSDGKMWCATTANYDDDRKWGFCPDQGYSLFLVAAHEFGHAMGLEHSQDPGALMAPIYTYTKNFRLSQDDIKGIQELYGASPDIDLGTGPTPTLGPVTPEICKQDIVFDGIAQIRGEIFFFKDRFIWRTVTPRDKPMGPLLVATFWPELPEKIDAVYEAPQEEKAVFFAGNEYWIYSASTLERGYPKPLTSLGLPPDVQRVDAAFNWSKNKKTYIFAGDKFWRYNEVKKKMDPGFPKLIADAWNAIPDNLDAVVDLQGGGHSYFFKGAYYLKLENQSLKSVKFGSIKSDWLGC
Description: A continuous assay was used in which the substrate is a synthetic peptide containing a fluorescent group (7-methoxycoumarin; Mca), which is quenched by energy transfer to a 2,4-dinitrophenyl group. […] The source of enzyme in the assay was the recombinant human MMP-2 (66 kDa; Oncogene Research Products (catalog number PF023 from Calbiochem)). The substrate used was the peptide Mca-PQGL-(3-[2,4-dinitrophenyl]-L-2,3-diaminopropionyl)-AR-OH. The assay buffer consisted of 50 mM Hepes (pH 7.4), 100 mM NaCl, 5 mM CaCl2, and 0.005% Brij-35. […] The plates were then incubated at 30° C. for 15 minutes. The enzymatic reactions were initiated by adding the substrate to a final concentration of 20 μM, and mixing 10 times with a pipette. The final DMSO concentration in the assay was 6.0%.
Plots of the inhibitor concentration vs. the percent inhibition were fit to the following equation: y=(a−d)/[^1+(x/c)^b]+d, a general sigmoidal curve with Hill slope, a to d. x is the inhibitor concentration under test. y is the percent inhibition. a is the limiting response as x approaches zero. As x increases without bound, y tends toward its limit d. c is the inflection point (IC50) for the curve. That is, y is halfway between the lower and upper asymptotes when x=c. b is the slope factor or Hill coefficient.

[3] = molecular target: T3, recombinant human catalytic domain of MMP-13 (Homo sapiens, UniProt P45452); assay: In vitro fluorescence assay of MMP-13 activity; type: biochemical; conditions: Table 1; unit inferred
T3 construct: catalytic domain of MMP-13 (165 amino acids, residues 104-268, 19 kDa)

[4] = molecular target: T4, purified recombinant human Aggrecanase-2 (Ag2t-Phe628-Strep) (Homo sapiens, UniProt Q9UNA0); assay: In vitro fluorescence screen for Aggrecanase-2 inhibitors; type: biochemical; conditions: Table 1; read-out: Agg 2 IC50
T4 construct: the form used is denoted as Ag2t-Phe628-Strep (MW=41,737)
T4 sequence (Q9UNA0 262-628): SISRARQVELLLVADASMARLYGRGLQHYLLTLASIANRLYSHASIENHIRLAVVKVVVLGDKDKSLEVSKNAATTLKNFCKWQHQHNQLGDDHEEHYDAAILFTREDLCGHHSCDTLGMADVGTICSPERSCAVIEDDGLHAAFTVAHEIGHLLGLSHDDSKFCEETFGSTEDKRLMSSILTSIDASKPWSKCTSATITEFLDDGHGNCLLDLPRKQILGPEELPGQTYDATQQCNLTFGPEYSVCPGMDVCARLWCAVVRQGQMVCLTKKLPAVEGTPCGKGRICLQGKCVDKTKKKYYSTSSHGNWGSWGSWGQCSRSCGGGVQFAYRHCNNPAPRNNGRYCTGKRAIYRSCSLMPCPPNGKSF

[5] = molecular target: T5, purified recombinant human Aggrecanase-1 (rAgg1) (Homo sapiens, UniProt O75173); assay: In vitro fluorescence screen for Aggrecanase-1 inhibitors; type: biochemical; conditions: Table 1; for IC50: read-out: Agg1 IC50; for Ki: enzyme not given, column follows Agg1 IC50, read-out: Ki
T5 sequence (O75173 213-837): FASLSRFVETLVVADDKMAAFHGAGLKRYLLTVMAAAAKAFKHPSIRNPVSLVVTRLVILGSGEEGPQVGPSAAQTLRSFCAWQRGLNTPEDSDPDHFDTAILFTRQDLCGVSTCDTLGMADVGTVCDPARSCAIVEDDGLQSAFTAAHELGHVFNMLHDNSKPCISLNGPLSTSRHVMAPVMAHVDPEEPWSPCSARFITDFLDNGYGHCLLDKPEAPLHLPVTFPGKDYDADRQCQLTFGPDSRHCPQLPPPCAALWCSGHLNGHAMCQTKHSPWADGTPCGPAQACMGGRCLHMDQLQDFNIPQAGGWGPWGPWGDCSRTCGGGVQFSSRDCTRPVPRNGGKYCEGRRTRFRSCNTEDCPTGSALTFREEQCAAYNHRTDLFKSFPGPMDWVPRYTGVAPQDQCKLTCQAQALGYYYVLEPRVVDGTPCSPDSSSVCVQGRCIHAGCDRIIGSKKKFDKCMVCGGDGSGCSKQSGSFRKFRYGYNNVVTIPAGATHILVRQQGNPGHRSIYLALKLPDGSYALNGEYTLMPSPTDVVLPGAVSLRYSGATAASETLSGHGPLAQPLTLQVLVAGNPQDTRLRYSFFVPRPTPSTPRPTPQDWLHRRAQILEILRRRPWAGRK

[6] = molecular target: T6, MMP-1 (Homo sapiens, UniProt P03956); assay: MMP-1 of Table 1; type: biochemical; conditions: for IC50: unit inferred; for MMP-1: unit not given
T6 sequence (P03956 100-469): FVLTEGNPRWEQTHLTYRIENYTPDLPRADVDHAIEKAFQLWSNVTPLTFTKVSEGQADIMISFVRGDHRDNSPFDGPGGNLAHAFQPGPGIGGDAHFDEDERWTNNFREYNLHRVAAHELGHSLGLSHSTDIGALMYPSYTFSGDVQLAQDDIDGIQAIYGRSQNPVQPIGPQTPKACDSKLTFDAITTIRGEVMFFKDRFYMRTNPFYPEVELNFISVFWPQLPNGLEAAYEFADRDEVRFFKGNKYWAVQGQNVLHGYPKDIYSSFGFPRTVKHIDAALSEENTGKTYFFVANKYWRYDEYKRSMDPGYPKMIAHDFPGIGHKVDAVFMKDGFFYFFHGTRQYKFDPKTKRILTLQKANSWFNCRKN

[7] = test system: bovine articular cartilage treated with Interleukin 1 alpha (IL-1α); assay: Bovine articular cartilage explant cultures: inhibition of degradation of proteoglycan; type: cell-based; conditions: inhibitory effect expressed as percentage, concentration not printed
Description: This in vitro procedure was used to evaluate the effect and relative potencies of small molecule compounds to inhibit the degradation of proteoglycan in articular cartilage treated with Interleukin 1 alpha (IL-1α). Treatment of articular cartilage with IL 1α induces expression of a cascade of enzymes that initiates cartilage matrix degradation. This assay was utilized to select small molecule compounds that inhibit the enzyme activity and protects cartilage matrix degradation.
Articular cartilage: bovine metacarpal joints were disinfected with 10% Wescodyne followed by 70% ethanol. 6 mm articular cartilage discs were prepared and rinsed once in PBS and medium, respectively. The discs were cultured in a stirring flask with serum-free medium for 5 days for equilibrium with one medium change. Small molecule compounds: stock solutions of test small molecule compounds (usually at 5 mg/ml) were prepared in DMSO. Working solutions were diluted with DMSO and generally ranged from 0.1 μg/ml to 10 ug/ml. The DMSO stocks were stored at […]. Articular cartilage explant culture medium: DMEM, 2 mM glutamax, 100 U/ml of antibiotic and antimycotic, 50 μg/ml ascorbate and 10 mM Hepes (pH-7.0). Proteoglycan content-Dimethyl methylene blue (DMMB) solution: […] DMMB, 10 ml 100% ethanol, 29.5 ml of 1M NaOH, 3.5 ml of 98% formic acid and water to 1 L. Chondroitin sulphate sodium salt: 1.56-200 ug/ml serial dilutions.
For the explant culture, cartilage discs were cultured in serum-free medium for 48 h or more. Discs were weighed and transferred to a 96-well plate, 1 disc per-well. 0.2 ml of medium containing 5 ng/ml of IL-1 and different concentrations of compounds were added to each well, with 3 wells allocated for each treatment. The medium was collected at days 1, 2, & 3 and replaced accordingly.
For the DMMB assay, conditioned medium (CM) samples were diluted with medium. 10 ul of each standard or diluted sample was added in duplicate into a 96-well-plate and 200 μl of DMMB solution was added into each well. Absorbance at 520 nm was measured for each well. Proteoglycan contents in CM were calculated daily.
The proteoglycan contents are expressed as ug per mg of cartilage. The inhibitory effect of the compounds is expressed as percentage. (See, Tortorella, M. D. et al., Science 1999, 284, 1664-1666).

[8] = Table 1, first of two columns headed bovine
[9] = Table 1, second of two columns headed bovine

Structure (SMILES)	IC50 [1] [µM]	IC50 [2] [µM]	IC50 [3] [µM]	IC50 [4] [µM]	IC50 [5] [µM]	IC50 [6] [µM]	Ki [5] [µM]	MMP-1 [6]	bovine [7, 8] [%]	bovine [7, 9] [%]
O=C(O)CC[C@H](NC(=O)c1ccc(-c2ccccc2)cc1)C(=O)NC1CCCCC1 [Example 8A, N^2-(1,1′-biphenyl-4-ylcarbonyl)-N^1-cyclohexyl-L-α-glutamine]	~25	4.4	~40	0.9	0.15	> 100			75	29
O=C(O)CC[C@H](NC(=O)c1ccc(-c2ccccc2)cc1)C(=O)NC1CC1 [Example 8B, N^2-(1,1′-biphenyl-4-ylcarbonyl)-N^1-cyclopropyl-L-α-glutamine]	~25	5.6	~50	1.9	0.46	> 100			54	22
CCCCNC(=O)[C@H](CCC(=O)O)NC(=O)c1ccc(-c2ccccc2)cc1 [Example 8C, N^2-(1,1′-biphenyl-4-ylcarbonyl)-N^1-butyl-L-α-glutamine]	~25	6	~50	1.2	0.11	> 100			68	34
O=C(O)CC[C@H](NC(=O)c1ccc(-c2ccccc2)cc1)C(=O)NCc1ccc(F)cc1 [Example 8D, N^2-(1,1′-biphenyl-4-ylcarbonyl)-N^1-(4-fluorobenzyl)-L-α-glutamine]	17	4.4	~25		0.22	> 100			67	27
O=C(O)CC[C@H](NC(=O)c1ccc(-c2ccccc2)cc1)C(=O)NC1CCCCCCC1 [Example 8E, N^2-(1,1′-biphenyl-4-ylcarbonyl)-N^1-cyclooctyl-L-α-glutamine]	~25	3.7	~25	0.746	0.09	> 200			79	34
O=C(O)CC[C@H](NC(=O)c1ccc(-c2ccccc2)cc1)C(=O)NC1CCCC1 [Example 8G, N^2-(1,1′-biphenyl-4-ylcarbonyl)-N^1-cyclopentyl-L-α-glutamine]	~25	~50	~50	0.614	0.08	> 100			76	39
O=C(CC[C@H](NC(=O)c1ccc(-c2ccccc2)cc1)C(=O)NCc1cccc(OC(F)(F)F)c1)NO [Example 33D, N^2-(1,1′-biphenyl-4-ylcarbonyl)-N^5-hydroxy-N^1-[3-(trifluoromethoxy)benzyl]-L-α-glutamamide]	0.0736	0.0033	0.052	0.0134	< 0.01	~1.56				

Further lines, with some results ahead:

IC50 [1] [µM]	IC50 [2] [µM]	IC50 [3] [µM]	IC50 [4] [µM]	IC50 [5] [µM]	IC50 [6] [µM]	Ki [5] [µM]	MMP-1 [6]	Structure (SMILES)	bovine [7, 8] [%]	bovine [7, 9] [%]
~13	3	~13	1.8	0.15	> 100			O=C(O)CC[C@H](NC(=O)c1ccc(-c2ccccc2)cc1)C(=O)NCc1ccc2c(c1)OCO2 [Example 7, N^1-(1,3-benzodioxol-5-ylmethyl)-N^2-(1,1′-biphenyl-4-ylcarbonyl)-L-α-glutamine]	61	28
~25	5.65	~22	0.121	0.022		0.019	no inh	COc1cc(CNC(=O)[C@H](CCC(=O)O)NC(=O)c2ccc(-c3ccccc3)cc2)cc(OC)c1 [Example 8CC, N^2-(1,1′-biphenyl-4-ylcarbonyl)-N^1-(3,5-dimethoxybenzyl)-L-α-glutamine]	94	71
16.2	4.58	~22	0.93	0.094			no inh	Cc1ccc(CNC(=O)[C@H](CCC(=O)O)NC(=O)c2ccc(-c3ccccc3)cc2)cc1C [Example 8DD, N^2-(1,1′-biphenyl-4-ylcarbonyl)-N^1-(3,4-dimethylbenzyl)-L-α-glutamine]	89	50
~25	5.63	~22	0.304	0.03	> 200	0.012		COc1ccc(CNC(=O)[C@H](CCC(=O)O)NC(=O)c2ccc(-c3ccccc3)cc2)cc1OC [Example 8F, N^2-(1,1′-biphenyl-4-ylcarbonyl)-N^1-(3,4-dimethoxybenzyl)-L-α-glutamine]	81	56
